Reference: PubChem BioAssay (NCI)
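Compound exposure: 48 hours, 5 concentrations, 96-well plates. The concentration for 50% growth inhibition is given as GI50. TGI marks complete inhibition of growth.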

Columns and labels:
Assay in all cases: NCI-60 cell line screen, 48 h
UACC-62 melanoma = tested on: UACC-62 melanoma
UO-31 renal = tested on: UO-31 renal
MDA-MB-435 = tested on: MDA-MB-435
ACHN renal = tested on: ACHN renal
OVCAR-5 ovarian = tested on: OVCAR-5 ovarian
BT-549 breast = tested on: BT-549 breast
SK-MEL-5 melanoma = tested on: SK-MEL-5 melanoma
NCI/ADR-RES ovarian = tested on: NCI/ADR-RES ovarian
A498 renal = tested on: A498 renal
786-0 renal = tested on: 786-0 renal
SW-620 colon = tested on: SW-620 colon
RXF 393 renal = tested on: RXF 393 renal
MALME-3M melanoma = tested on: MALME-3M melanoma
PC-3 prostate = tested on: PC-3 prostate
NCI-H522 lung = tested on: NCI-H522 lung
COLO 205 colon = tested on: COLO 205 colon
OVCAR-3 ovarian = tested on: OVCAR-3 ovarian
U251 CNS = tested on: U251 CNS
NCI-H23 lung = tested on: NCI-H23 lung
LOX IMVI melanoma = tested on: LOX IMVI melanoma
UACC-257 melanoma = tested on: UACC-257 melanoma
HCT-116 colon = tested on: HCT-116 colon
HOP-92 NSCLC = tested on: HOP-92 NSCLC
DU-145 prostate = tested on: DU-145 prostate
HCC-2998 colon = tested on: HCC-2998 colon
KM12 colon = tested on: KM12 colon
OVCAR-8 ovarian = tested on: OVCAR-8 ovarian
CAKI-1 renal = tested on: CAKI-1 renal
HOP-62 NSCLC = tested on: HOP-62 NSCLC
SNB-19 CNS = tested on: SNB-19 CNS
A549 NSCLC = tested on: A549 NSCLC
HT29 colon = tested on: HT29 colon
SR leukemia = tested on: SR leukemia
SNB-75 CNS = tested on: SNB-75 CNS
TK-10 renal = tested on: TK-10 renal
CCRF-CEM leukemia = tested on: CCRF-CEM leukemia
HL-60(TB) leukemia = tested on: HL-60(TB) leukemia
K-562 leukemia = tested on: K-562 leukemia
SK-OV-3 ovarian = tested on: SK-OV-3 ovarian
MOLT-4 leukemia = tested on: MOLT-4 leukemia
SF-268 CNS = tested on: SF-268 CNS
SK-MEL-28 melanoma = tested on: SK-MEL-28 melanoma
NCI-H226 lung = tested on: NCI-H226 lung
SF-295 CNS = tested on: SF-295 CNS
OVCAR-4 ovarian = tested on: OVCAR-4 ovarian
EKVX NSCLC = tested on: EKVX NSCLC
SF-539 CNS = tested on: SF-539 CNS
M14 melanoma = tested on: M14 melanoma
IGROV1 ovarian = tested on: IGROV1 ovarian
SN12C renal = tested on: SN12C renal
MCF7 breast = tested on: MCF7 breast
RPMI-8226 leukemia = tested on: RPMI-8226 leukemia
T-47D breast = tested on: T-47D breast
HCT-15 colon = tested on: HCT-15 colon
HS 578T breast = tested on: HS 578T breast
MDA-MB-231 breast = tested on: MDA-MB-231 breast
NCI-H460 lung = tested on: NCI-H460 lung
SK-MEL-2 melanoma = tested on: SK-MEL-2 melanoma

CC1=CC(=O)N(c2cccc3c(N4C(=O)C=C(C)C4=O)cccc23)C1=O
GI50 (UACC-62 melanoma): 7.68 µM
TGI (UACC-62 melanoma): 20.5 µM
GI50 (UO-31 renal): 1.78 µM
TGI (UO-31 renal): 4.44 µM
GI50 (MDA-MB-435): 3.13 µM
TGI (MDA-MB-435): > 37.1 µM
GI50 (ACHN renal): 2.78 µM
TGI (ACHN renal): 11 µM
GI50 (OVCAR-5 ovarian): 8.35 µM
TGI (OVCAR-5 ovarian): 26.3 µM
GI50 (BT-549 breast): 6.44 µM
TGI (BT-549 breast): 19.5 µM
GI50 (SK-MEL-5 melanoma): 15.5 µM
TGI (SK-MEL-5 melanoma): 36.3 µM
GI50 (NCI/ADR-RES ovarian): 10.4 µM
TGI (NCI/ADR-RES ovarian): > 89 µM
GI50 (A498 renal): 26.6 µM
TGI (A498 renal): 56.5 µM
GI50 (786-0 renal): 7.5 µM
TGI (786-0 renal): 23.5 µM
GI50 (SW-620 colon): 0.99 µM
TGI (SW-620 colon): 2.93 µM
GI50 (RXF 393 renal): 1.96 µM
TGI (RXF 393 renal): 4.4 µM
GI50 (MALME-3M melanoma): 3.13 µM
TGI (MALME-3M melanoma): 9.33 µM
GI50 (PC-3 prostate): 7.97 µM
TGI (PC-3 prostate): 22.7 µM
GI50 (NCI-H522 lung): 0.693 µM
TGI (NCI-H522 lung): 1.79 µM
GI50 (COLO 205 colon): 0.988 µM
TGI (COLO 205 colon): 2.65 µM
GI50 (OVCAR-3 ovarian): 1.54 µM
TGI (OVCAR-3 ovarian): 5.9 µM
GI50 (U251 CNS): 5.88 µM
TGI (U251 CNS): 19.5 µM
GI50 (NCI-H23 lung): 15.3 µM
TGI (NCI-H23 lung): 39.7 µM
GI50 (LOX IMVI melanoma): 1.8 µM
TGI (LOX IMVI melanoma): 5.56 µM
GI50 (UACC-257 melanoma): 3.97 µM
TGI (UACC-257 melanoma): 25 µM
GI50 (HCT-116 colon): 1.79 µM
TGI (HCT-116 colon): 4.16 µM
GI50 (HOP-92 NSCLC): 2.5 µM
TGI (HOP-92 NSCLC): 21 µM
GI50 (DU-145 prostate): 4.08 µM
TGI (DU-145 prostate): 14.4 µM
GI50 (HCC-2998 colon): 18.4 µM
TGI (HCC-2998 colon): 34.3 µM
GI50 (KM12 colon): 11.3 µM
TGI (KM12 colon): 34 µM
GI50 (OVCAR-8 ovarian): 3.36 µM
TGI (OVCAR-8 ovarian): 16.5 µM
GI50 (CAKI-1 renal): 3.61 µM
TGI (CAKI-1 renal): 13.8 µM
GI50 (HOP-62 NSCLC): 28.3 µM
TGI (HOP-62 NSCLC): > 69.3 µM
GI50 (SNB-19 CNS): 53.3 µM
TGI (SNB-19 CNS): > 100 µM
GI50 (A549 NSCLC): 32.5 µM
TGI (A549 NSCLC): > 100 µM
GI50 (HT29 colon): 2.73 µM
TGI (HT29 colon): 8.1 µM
GI50 (SR leukemia): 1.56 µM
TGI (SR leukemia): 5.22 µM
GI50 (SNB-75 CNS): 28.1 µM
TGI (SNB-75 CNS): > 100 µM
GI50 (TK-10 renal): 3.1 µM
TGI (TK-10 renal): 7.83 µM
GI50 (CCRF-CEM leukemia): 1.52 µM
TGI (CCRF-CEM leukemia): 11.1 µM
GI50 (HL-60(TB) leukemia): 2.38 µM
TGI (HL-60(TB) leukemia): 8.8 µM
GI50 (K-562 leukemia): 1.9 µM
TGI (K-562 leukemia): 9.45 µM
GI50 (SK-OV-3 ovarian): 53 µM
TGI (SK-OV-3 ovarian): > 100 µM
GI50 (MOLT-4 leukemia): 3.29 µM
TGI (MOLT-4 leukemia): 11.1 µM
GI50 (SF-268 CNS): 6.37 µM
TGI (SF-268 CNS): 23.8 µM
GI50 (SK-MEL-28 melanoma): 7.81 µM
TGI (SK-MEL-28 melanoma): 43.5 µM
GI50 (NCI-H226 lung): 23.1 µM
TGI (NCI-H226 lung): > 63.8 µM
GI50 (SF-295 CNS): > 46.7 µM
TGI (SF-295 CNS): > 71.5 µM
GI50 (OVCAR-4 ovarian): 5.18 µM
TGI (OVCAR-4 ovarian): 16.9 µM
GI50 (EKVX NSCLC): 15.6 µM
TGI (EKVX NSCLC): 33.5 µM
GI50 (SF-539 CNS): 3.37 µM
TGI (SF-539 CNS): 26.2 µM
GI50 (M14 melanoma): 3.9 µM
TGI (M14 melanoma): 19.5 µM
GI50 (IGROV1 ovarian): 3.55 µM
TGI (IGROV1 ovarian): 16.2 µM
GI50 (SN12C renal): 8.62 µM
TGI (SN12C renal): 26.5 µM
GI50 (MCF7 breast): 3.95 µM
TGI (MCF7 breast): 23.5 µM
GI50 (RPMI-8226 leukemia): 3.71 µM
TGI (RPMI-8226 leukemia): 19 µM
GI50 (T-47D breast): 2.07 µM
TGI (T-47D breast): 9.12 µM
GI50 (HCT-15 colon): 2.67 µM
TGI (HCT-15 colon): 10.2 µM
GI50 (HS 578T breast): 18.6 µM
TGI (HS 578T breast): > 100 µM
GI50 (MDA-MB-231 breast): 8.44 µM
TGI (MDA-MB-231 breast): 22.5 µM
GI50 (NCI-H460 lung): 19.5 µM
TGI (NCI-H460 lung): 47.7 µM
GI50 (SK-MEL-2 melanoma): 31.5 µM
TGI (SK-MEL-2 melanoma): > 100 µM
